Ends that are not written are not given here.
Legend:
MDA-MB-231-luc cells = assay: Tumor suppression in breast cancer xenograft model; type: in vivo, NPG mice; details: for average tumor volume: tail vein
Procedure: FIG. 14B is a schematic representation of the experimental protocol. Here, anesthetized 6-week-old […] NPG mice were inoculated with a 1:1 mix of Matrigel and 1×10^6 MDA-MB-231-luc cells into the mammary fat pad. […] Nuclei were stained with DAPI (blue), and the scale bar is 50 μm. Bar graphs represent the mean±SD, and statistical analyses were performed by one-way ANOVA with Dunnett's multiple comparison. *, **, and *** indicate P<0.05, P<0.01, and P<0.001, respectively. […]
All animal experiments were performed in accordance with IACUC guidelines (GIST-2019-040). For tumorigenesis experiments, anesthetized 6-week-old female NOD-scid Il2rg^−/− mice (NPG™, VITALSTAR) were inoculated in the mammary fat pad with 1×10^6 MDA-MB-231-luc cells in a volume of 100 μl (n=5˜6 for each group). After tumor cell inoculation, when the tumor volume reached approximately 100 mm^3, the mice were randomly divided into the following five groups: (i) control, (ii) low-dose paclitaxel (2 mg/kg), (iii) high-dose paclitaxel (10 mg/kg), (iv) AGM-330 (16.68 mg/kg or 8.34 mg/kg), and (v) AGM-330-PTX (19.05 mg/kg or 10.71 mg/kg). The tumor size was measured twice a week, and the tumor volume was calculated with the following formula:
For the bioluminescent imaging experiment, D-luciferin (150 mg/kg; PerkinElmer) was intraperitoneally injected into each mouse, and an IVIS 100 imaging system (Xenogen, Corporation, Alameda, CA) was used for bioluminescent monitoring. Mice were anesthetized with vaporized isoflurane (BK Pharm, Ilsan, Korea) and placed in an imaging chamber. After 10 min, each animal was imaged with an exposure time of 1 min. All bioluminescent image data were provided by Living Image software (version 4.5.2, PerkinElmer). Photons detected from tumors were converted to average radiance values (photon/see/cm^2/sr), which are quantitative data obtained from a region of intensity (ROI) and include the photons emitted by bioluminescent cells from an assigned rectangular area over the whole body of each mouse.
Following in vitro proliferation analysis on cancer lines, the present inventors investigated whether AGM-330t-PTX could be a potential therapeutic agent in vivo. The present inventors inoculated MDA-MB-231-luc cells into the mammary fat pad of NPG mice. After the subcutaneous tumors grew to 100 mm^3, comparative efficacy studies were performed by dividing the animals into five groups (n=5/group) treated with vehicle (PBS), AGM-330t (16.68 mg/kg), PTX (2 or 10 mg/kg, respectively) or AGM-330t-PTX (19.05 mg/kg) twice a week by tail vein injection (FIG. 14B). Tumor growth was monitored by measuring volumes twice a week with a caliber rule over the course of 3 weeks.
The present inventors also performed histological staining of the excised tumors, and an independent pathologist evaluated the slides.

MCF-10A cells = assay: Cell proliferation assay (WST-1), AGM-330-PTX; type: cell-based; details: Homo sapiens, 48 h
[1] = system: MCF-7, MDA-MB-231, HT-29, and HCT-116; assay: FACS binding of AGM-330-FITC to cancer cells; type: cell-based, human; details: 2 h, 37° C., serum-free medium
MCF-10A and CCD-18Co [2] = assay: FACS binding of AGM-330-FITC to normal cells; type: cell-based, human; details: 2 h of incubation, versus cancer cells
NCL = NCL (Homo sapiens, UniProt P19338); assay: Double-immunofluorescence confocal microscopy with anti-NCL antibody; type: cell-based; parameters: GFP-NCL (residues 1-710); expressed in transfected cells; host or cells: HEK293T; details: 5 μmol/l, 1 h of incubation
NCL, sequence (P19338 whole entry, the tested form may be a part): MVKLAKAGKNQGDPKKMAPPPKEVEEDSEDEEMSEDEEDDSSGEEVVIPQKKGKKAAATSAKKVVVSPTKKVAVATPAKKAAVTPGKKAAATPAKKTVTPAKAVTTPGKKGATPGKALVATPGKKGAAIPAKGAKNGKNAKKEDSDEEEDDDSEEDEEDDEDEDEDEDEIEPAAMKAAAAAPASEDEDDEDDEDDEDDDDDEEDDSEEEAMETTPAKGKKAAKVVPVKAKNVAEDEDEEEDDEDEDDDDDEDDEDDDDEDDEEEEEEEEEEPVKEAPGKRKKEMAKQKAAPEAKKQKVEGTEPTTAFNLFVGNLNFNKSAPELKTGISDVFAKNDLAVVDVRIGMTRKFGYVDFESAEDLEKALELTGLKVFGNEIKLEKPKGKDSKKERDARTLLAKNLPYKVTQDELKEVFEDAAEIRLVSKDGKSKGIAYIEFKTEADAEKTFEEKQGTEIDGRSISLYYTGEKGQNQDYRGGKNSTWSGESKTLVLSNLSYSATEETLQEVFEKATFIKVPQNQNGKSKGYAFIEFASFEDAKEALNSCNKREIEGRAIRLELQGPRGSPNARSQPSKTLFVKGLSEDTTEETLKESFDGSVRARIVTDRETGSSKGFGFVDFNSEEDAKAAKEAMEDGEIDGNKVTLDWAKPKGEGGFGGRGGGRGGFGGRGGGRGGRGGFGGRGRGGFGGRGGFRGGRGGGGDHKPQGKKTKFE
Procedure: FIGS. 11A and 11B show the results of fluorescence confocal microscopy of multiple cancer and normal cells. […] Merge represents AGM-330-FITC, NCL, and nuclear staining by DAPI. AGM-330-FITC represents FITC-conjugated AGM-330. Scale bar is 20 μm. […] Here, plasma membrane, cytosol and nuclear NCL were immunoblotted using anti-NCL antibody. […] Here, MDA-MB-231 cells were transfected for 48 hours. Then, 5 μmol/l of AGM-330-FITC was added for 2 hours. Cells were washed twice with PBS and fixed with 4% paraformaldehyde. Fluorescence was observed using a fluorescent confocal microscope. AGM-330-FITC is FITC-conjugated AGM-330, and the scale bar is 20 μm. […] FIGS. 11G and 11H show in vivo fluorescence images of mice 30 min, 1 h, 6 h, and 24 h after intravenous injections of 10 nmol free Alexa680 (FIG. 11G) or 10 nmol AGM-330-Alexa680 (FIG. 11H) in MDA-MB-231-luc tumor-bearing mice. Here, fluorescence images of the major organs including the heart, spleen, lung, brain, liver, kidney, and tumors were removed from mice with different treatments. […] FIGS. 11I and 11J are graphs showing the average radiant efficiency of Alexa680-associated fluorescence from live imaging of three animals in tumors (FIG. 11I) and different organs (FIG. 11J).
The present inventors evaluated the specificity of AGM-330 to NCL with cell binding assays against different cell lines using fluorescence microscopy. […]

MCF-10A and CCD-18Co [3] = assay: Cell-growth-on-bead assay, normal cell lines; type: cell-based, human
Procedure: (§1) Here, multiple breast and colorectal cancer cells and normal breast and colorectal cells were re-suspended at 10^6 cells/ml and incubated with beads. All experiments were repeated 3 times, and the scale bar is 200 μm. […] Here, nuclei were stained with DAPI (blue), and scale bar is 50 μm. […] Here, a whole-cell binding assay was performed to determine the cell binding of AGM-330, and the scale bar is 200 μm. […] Fmoc=9-fluorenylmethoxycarbonyl, DMF=dimethylformamide. […] Here, bar graphs represent the mean±SD, and statistical analyses were performed by one-way ANOVA with Dunnett's multiple comparison. *, **, and *** indicate P<0.05, P<0.01, and P<0.001, respectively.
(§2) The beads were washed extensively with double-distilled water and phosphate-buffered saline (PBS; Welgene Inc., Korea) before screening. Cancer cells and normal cells were detached from culture dishes with trypsin/EDTA (Gibco), washed with their corresponding culture medium, resuspended at 10^6 cells/ml, and incubated with OBOC beads in Petri dishes in a humidified CO2 incubator at 37° C. with shaking (60 rpm). Beads bound by cells appeared under a microscope as rosettes with a central bead covered by one or more layers of cells. The positive beads were picked by pipette under an inverted microscope, treated with guanidine-HCL (8 M, 20 min) to remove cells and proteins on the bead surface, and subjected to a second round of screening with normal breast epithelial cells to eliminate false positive binding. Only beads with cell binding at both rounds were sent for peptide sequencing.
(§3) To identify a novel cancer-specific peptide ligand, the present inventors synthesized about 2, 600,000 libraries using 5 g of Tentagel MB NH2 resin (200 μm, 520,000 beads/g; FIG. 3).

MDA-MB-231 cells [4] = assay: AGM-330 binding to cells after NCL knockdown (fluorescence confocal microscopy); type: cell-based, human
Procedure: (§4) FIGS. 11A and 11B show the results of fluorescence confocal microscopy of multiple cancer and normal cells. Here, MCF-10A, MCF-7, MDA-MB-231 (FIG. 11A) or CCD-18Co, HT-29, and HCT-116 (FIG. 11B) cells were incubated with 5 μmol/l AGM-330-FITC for 30 min at 37° C. […] Cells were then fixed with 4% paraformaldehyde, and the nuclei were stained with DAPI. Merge represents AGM-330-FITC, NCL, and nuclear staining by DAPI. AGM-330-FITC represents FITC-conjugated AGM-330. Scale bar is 20 μm. […] Here, plasma membrane, cytosol and nuclear NCL were immunoblotted using anti-NCL antibody. […] Here, MDA-MB-231 cells were transfected for 48 hours. Then, 5 μmol/l of AGM-330-FITC was added for 2 hours. […] Fluorescence was observed using a fluorescent confocal microscope. […] FIGS. 11G and 11H show in vivo fluorescence images of mice 30 min, 1 h, 6 h, and 24 h after intravenous injections of 10 nmol free Alexa680 (FIG. 11G) or 10 nmol AGM-330-Alexa680 (FIG. 11H) in MDA-MB-231-luc tumor-bearing mice. Here, fluorescence images of the major organs including the heart, spleen, lung, brain, liver, kidney, and tumors were removed from mice with different treatments. […] FIGS. 11I and 11J are graphs showing the average radiant efficiency of Alexa680-associated fluorescence from live imaging of three animals in tumors (FIG. 11I) and different organs (FIG. 11J). […]

MDA-MB-231-luc tumor = assay: In vivo near-infrared fluorescence imaging in xenograft model of human breast cancer; parameters: species or system mice; details: mouse
Procedure: as §4

MDA-MB-231 = assay: Whole-cell binding (cell-growth-on-bead) assay of screened peptide beads; type: cell-based, human
Procedure: as §1, §2, §3

MCF-10A = assay: as above; type: cell-based, human
Procedure: as §1, §2, §3

MDA-MB-231 cells [5] = assay: Confocal imaging of FITC-labeled peptides; type: cell-based, human; details: compared with AGM-331 and AGM-332
[6] = system: human breast cancer cell lines (MCF7 and MDA-MB-231) and human colorectal cancer cell lines (HT-29 and HCT-116); assay: Cell-growth-on-bead assay with resynthesized AGM-330 beads; type: cell-based; details: MCF7, MDA-MB-231, HT-29, HCT-116
Procedure: as §1
The beads were washed extensively with double-distilled water and phosphate-buffered saline (PBS; Welgene Inc., Korea) before screening. Cancer cells and normal cells were detached from culture dishes with trypsin/EDTA (Gibco), washed with their corresponding culture medium, resuspended at 10^6 cells/ml, and incubated with OBOC beads in Petri dishes in a humidified CO2 incubator at 37° C. with shaking (60 rpm). Beads bound by cells appeared under a microscope as rosettes with a central bead covered by one or more layers of cells. […]

## CC(=O)O[C@H]1C(=O)[C@@]2(C)[C@H]([C@H](OC(=O)c3ccccc3)[C@]3(O)C[C@H](OC(=O)[C@H](O)[C@@H](NC(=O)c4ccccc4)c4ccccc4)C(C)=C1C3(C)C)[C@]1(OC(C)=O)CO[C@@H]1C[C@@H]2O [PTX, Paclitaxel, reference compound]
MDA-MB-231-luc cells; 2 mg/kg twice a week, n=5
  average tumor volume: 1671±199 mm^3
MDA-MB-231-luc cells; 2 mg/kg, n=5
  final average tumor weight: 2.1 ± 0.4 g
MDA-MB-231-luc cells; 10 mg/kg twice a week, day 21, n=5
  average tumor volume: 988±78 mm^3
MDA-MB-231-luc cells; 10 mg/kg, n=5
  final average tumor weight: 1.5 ± 0.1 g
MCF-10A cells
  IC50: 22.1 µM

## AGM-330-FITC (RHGAMVYLK; also: FITC-labelled (site not given here))
[1]
  cancer cell binding (increase in MFI relative to untreated cells): significant cancer cell binding
MCF-10A and CCD-18Co [2]
  binding to normal cells (MFI): significant decrease in binding
NCL
  colocalization with NCL staining: overlap between NCL and AGM-330-FITC

## RHGAMVYLK [AGM-330, name also used for its PEGylated MAP dendrimeric forms]
MCF-10A and CCD-18Co [3]
  binding to normal cell lines MCF-10A and CCD-18Co: bound either very weakly or not at all
MDA-MB-231-luc cells; 16.68 mg/kg
  difference in the average tumor volume versus vehicle (PBS)-treated mice: no significant difference
MDA-MB-231 cells [4]
  fluorescence signal (AGM-330 binding) in siNCL1-treated cells: little or no fluorescence signal
MDA-MB-231-luc tumor
  distribution in tumor tissue versus normal organs (NIRF images): mainly accumulated throughout the tumor tissue rather than normal organs
MDA-MB-231
  binding to MDA-MB-231: strong preferential binding
MCF-10A
  binding to the human normal breast cell line MCF-10A: no or only weak binding
MDA-MB-231 cells [5]
  fluorescence signals of FITC-labeled peptide on MDA-MB-231 cells: strongest fluorescence signals
[6]
  time until beads were fully covered by cancer cell lines: ≤ 15 min
